According to PMC9975586, “Inhibitory effect of Selaginella doederleinii hieron on human cytochrome P450” (Frontiers in Pharmacology, 2023):
Where two headings read alike, the source gives them in different places.

Tests used:
CYP1A2 = biological target: T1, CYP1A2 (Homo sapiens, UniProt P05177); assay: CYP450 cocktail inhibition assay (LC-MS/MS, human liver microsomes); type: in vitro ADME; conditions: for IC50: HLM 0.5 mg/mL, substrate Phenacetin 10 μM, 15 min
T1 sequence (P05177 1-516): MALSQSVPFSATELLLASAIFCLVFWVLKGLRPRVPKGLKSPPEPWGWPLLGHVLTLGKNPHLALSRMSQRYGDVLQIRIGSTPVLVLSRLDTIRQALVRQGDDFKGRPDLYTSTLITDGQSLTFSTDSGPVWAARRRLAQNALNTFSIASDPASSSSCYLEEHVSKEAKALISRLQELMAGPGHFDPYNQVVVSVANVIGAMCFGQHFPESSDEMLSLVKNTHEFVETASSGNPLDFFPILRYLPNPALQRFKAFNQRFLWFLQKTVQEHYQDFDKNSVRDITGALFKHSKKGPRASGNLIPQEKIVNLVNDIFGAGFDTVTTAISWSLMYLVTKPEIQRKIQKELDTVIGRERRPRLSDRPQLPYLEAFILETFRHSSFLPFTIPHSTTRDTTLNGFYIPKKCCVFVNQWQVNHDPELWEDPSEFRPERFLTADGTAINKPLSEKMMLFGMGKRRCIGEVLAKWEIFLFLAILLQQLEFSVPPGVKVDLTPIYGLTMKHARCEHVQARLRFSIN
Method: (§1) The contents of organic solvent and DMSO in incubation mixture was under 1% (v/v) and 0.1% (v/v) respectively. Reactions were terminated by adding 200 µL of an ice-cold stop solution consisting of methanol containing Rutin (2 µg/ml) as internal standard. Samples were subsequently cooled in ice bath to precipitate proteins. Supernatants were collected into clean tubes after centrifugation at 12000 rpm at 4°C for 10 min prior to inject into LC-MS/MS.
(§2) Percentages of control activity were calculated to determine inhibition potency. The inhibition curves were obtained by incubating the cocktail of substrates with 10–11 different compounds’ concentrations, where Delicaflavone and Amentoflavone were 0–50 µM.
(§3) For specific MRM parameters, please refer to Supplementary Table S3.

CYP2C19 [1] = biological target: T2, CYP2C19 (Homo sapiens, UniProt P33261); assay: as above
T2 sequence (P33261 whole entry): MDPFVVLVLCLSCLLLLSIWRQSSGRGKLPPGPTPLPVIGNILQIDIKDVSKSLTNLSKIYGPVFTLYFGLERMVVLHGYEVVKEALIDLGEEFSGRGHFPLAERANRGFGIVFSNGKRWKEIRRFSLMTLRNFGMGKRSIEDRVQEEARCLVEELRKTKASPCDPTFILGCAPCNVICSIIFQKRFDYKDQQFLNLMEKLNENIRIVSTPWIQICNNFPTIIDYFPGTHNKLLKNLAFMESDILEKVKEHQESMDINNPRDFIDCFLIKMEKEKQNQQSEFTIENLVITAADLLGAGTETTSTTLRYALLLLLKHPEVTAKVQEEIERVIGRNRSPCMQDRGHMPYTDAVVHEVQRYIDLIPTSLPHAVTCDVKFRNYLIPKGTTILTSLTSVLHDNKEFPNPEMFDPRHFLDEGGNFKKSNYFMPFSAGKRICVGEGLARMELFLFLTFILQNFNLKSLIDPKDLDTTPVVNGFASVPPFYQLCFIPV
Method: as §1, §2, §3

CYP2C8 = biological target: T3, CYP2C8 (Homo sapiens, UniProt P10632); assay: as above; conditions: for inhibition at 15 min, 10 µM: human, microsomes, pH 7.4
T3 sequence (P10632 1-490): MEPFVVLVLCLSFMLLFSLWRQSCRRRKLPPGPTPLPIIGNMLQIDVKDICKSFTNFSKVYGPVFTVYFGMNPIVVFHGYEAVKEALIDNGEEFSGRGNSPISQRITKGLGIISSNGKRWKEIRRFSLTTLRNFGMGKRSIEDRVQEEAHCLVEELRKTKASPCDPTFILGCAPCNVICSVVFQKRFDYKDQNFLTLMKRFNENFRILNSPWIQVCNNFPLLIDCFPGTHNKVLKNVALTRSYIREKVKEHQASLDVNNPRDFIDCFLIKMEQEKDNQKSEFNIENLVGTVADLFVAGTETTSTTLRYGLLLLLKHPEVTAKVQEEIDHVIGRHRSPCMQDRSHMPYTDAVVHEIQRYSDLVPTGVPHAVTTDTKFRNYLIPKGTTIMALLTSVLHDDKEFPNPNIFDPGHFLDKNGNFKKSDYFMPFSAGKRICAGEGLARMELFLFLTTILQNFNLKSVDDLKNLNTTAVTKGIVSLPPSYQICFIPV
Method: as §1, §2, §3

CYP2C9 = CYP2C9 (Homo sapiens, UniProt P11712); assay: as above; conditions: for inhibition at 15 min, 10 µM: human, microsomes, pH 7.4
Sequence of CYP2C9 (P11712 whole entry): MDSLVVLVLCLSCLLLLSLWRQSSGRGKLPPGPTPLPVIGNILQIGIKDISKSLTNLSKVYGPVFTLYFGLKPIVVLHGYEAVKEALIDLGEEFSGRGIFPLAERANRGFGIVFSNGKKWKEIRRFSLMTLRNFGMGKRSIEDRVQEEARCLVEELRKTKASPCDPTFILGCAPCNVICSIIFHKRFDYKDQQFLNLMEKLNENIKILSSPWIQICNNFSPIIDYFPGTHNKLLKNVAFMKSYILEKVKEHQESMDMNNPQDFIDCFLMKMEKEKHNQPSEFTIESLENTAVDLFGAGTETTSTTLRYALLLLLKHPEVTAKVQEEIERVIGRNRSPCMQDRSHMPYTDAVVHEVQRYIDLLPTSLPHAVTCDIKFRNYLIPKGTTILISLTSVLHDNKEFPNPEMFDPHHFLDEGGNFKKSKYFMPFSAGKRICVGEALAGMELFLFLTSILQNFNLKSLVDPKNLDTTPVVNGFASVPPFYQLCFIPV
Method: as §1, §2, §3

CYP2D6 [2] = biological target: T4, CYP2D6 (Homo sapiens, UniProt P10635); assay: as above
T4 sequence (P10635 whole entry): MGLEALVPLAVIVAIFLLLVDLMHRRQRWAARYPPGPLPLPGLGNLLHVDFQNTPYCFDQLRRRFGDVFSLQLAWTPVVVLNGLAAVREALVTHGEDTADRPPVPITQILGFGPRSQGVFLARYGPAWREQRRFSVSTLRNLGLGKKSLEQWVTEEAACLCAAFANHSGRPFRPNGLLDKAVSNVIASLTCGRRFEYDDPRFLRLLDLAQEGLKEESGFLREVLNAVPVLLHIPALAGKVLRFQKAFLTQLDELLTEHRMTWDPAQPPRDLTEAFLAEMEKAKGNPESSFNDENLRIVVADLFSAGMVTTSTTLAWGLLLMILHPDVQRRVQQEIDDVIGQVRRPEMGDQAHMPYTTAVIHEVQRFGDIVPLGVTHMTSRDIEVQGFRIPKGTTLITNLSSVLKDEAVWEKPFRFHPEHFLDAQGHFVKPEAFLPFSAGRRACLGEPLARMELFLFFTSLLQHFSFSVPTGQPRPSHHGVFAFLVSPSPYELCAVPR
Method: as §1, §2, §3

CYP2E1 = CYP2E1 (Homo sapiens, UniProt P05181); assay: as above; conditions: for inhibition at 15 min, 10 µM: human, pH 7.4
Sequence of CYP2E1 (P05181 whole entry): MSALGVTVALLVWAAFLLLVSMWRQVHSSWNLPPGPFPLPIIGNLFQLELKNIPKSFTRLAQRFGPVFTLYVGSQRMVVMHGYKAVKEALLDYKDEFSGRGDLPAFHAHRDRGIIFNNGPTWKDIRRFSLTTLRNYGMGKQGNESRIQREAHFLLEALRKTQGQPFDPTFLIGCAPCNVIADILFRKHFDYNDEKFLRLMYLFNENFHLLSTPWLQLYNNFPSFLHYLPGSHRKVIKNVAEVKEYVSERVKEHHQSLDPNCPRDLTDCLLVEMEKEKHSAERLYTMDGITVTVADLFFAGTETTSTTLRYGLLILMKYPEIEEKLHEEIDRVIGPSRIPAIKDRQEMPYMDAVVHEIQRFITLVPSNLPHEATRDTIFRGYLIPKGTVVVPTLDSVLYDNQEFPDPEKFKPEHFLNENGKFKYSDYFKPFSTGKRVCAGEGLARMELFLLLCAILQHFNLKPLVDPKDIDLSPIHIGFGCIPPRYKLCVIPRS
Method: as §1, §2, §3

CYP3A = CYP3A (Homo sapiens, UniProt P08684); assay: as above; type: in vitro ADME; conditions: for IC50 at 15 min / inhibition at 15 min, 10 µM: human, liver microsomes
Sequence of CYP3A (P08684 2-503): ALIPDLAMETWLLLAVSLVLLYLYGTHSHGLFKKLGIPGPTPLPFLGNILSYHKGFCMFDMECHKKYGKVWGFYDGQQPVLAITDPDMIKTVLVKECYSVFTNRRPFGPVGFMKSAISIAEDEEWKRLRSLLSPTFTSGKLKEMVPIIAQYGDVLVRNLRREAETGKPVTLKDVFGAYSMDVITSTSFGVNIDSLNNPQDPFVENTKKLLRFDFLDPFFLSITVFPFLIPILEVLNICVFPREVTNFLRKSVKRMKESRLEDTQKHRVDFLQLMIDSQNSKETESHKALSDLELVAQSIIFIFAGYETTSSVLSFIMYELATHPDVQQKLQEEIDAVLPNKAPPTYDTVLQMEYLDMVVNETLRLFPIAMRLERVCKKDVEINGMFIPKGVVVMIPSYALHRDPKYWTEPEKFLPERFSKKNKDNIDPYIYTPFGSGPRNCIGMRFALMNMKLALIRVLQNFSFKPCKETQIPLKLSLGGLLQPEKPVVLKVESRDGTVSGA
Method: Inhibitory effect of SDEA on CYP450 isoforms was determined by cocktail assay. […] The amount of metabolites produced by incubation without SDEA (control group) was taken as 100%, then draw inhibition efficiency curve.

CYP2C19 [3] = biological target: T2, CYP2C19; assay: Time-dependent inhibition study (pre-incubation with HLM with/without NADPH, cocktail assay); type: in vitro ADME; conditions: single point screening; SDEA 0.5 μg/ml, Amentoflavone 0.1 μM, Delicaflavone 2 μM; 35 min pre-incubation with/without NADPH
Method: (§4) Enzymes that may be involved in time-dependent were pre-incubated for 0, 5, 10, 15 and 35 min respectively, and then re-incubated to determine the type of inhibition. Residual enzyme activity pre-incubated without NADPH was set as the control group, then drawing suppression curves based on the measured data.

CYP2D6 [4] = biological target: T4, CYP2D6; assay: as above; type: in vitro ADME; conditions: single point screening; SDEA 0.5 μg/ml, Amentoflavone 0.1 μM, Delicaflavone 2 μM; 35 min pre-incubation with/without NADPH
Method: as §4

CYP3A (Testosterone) = assay: as above; type: in vitro ADME, human; conditions: single point screening; SDEA 0.5 μg/ml, Delicaflavone 2 μM; 35 min pre-incubation with/without NADPH
Method: as §4

[5] = single-point, 10 μM, cocktail assay, HLM
[6] = pH 7.4, probe Dextromethorphan (3-methoxymorphinan formation, in cocktail)
[7] = pH 7.4, probe Testosterone 5 µM (in cocktail)
[8] = pH 7.4, probe Testosterone (in cocktail), single-point, 10 μM, cocktail assay, HLM, substrate Testosterone, read-out: inhibitory effect on CYP3A (Testosterone)

Q: Which IC50 (CYP1A2) does the source give for O=c1cc(-c2ccc(Oc3c(-c4ccc(O)cc4)oc4cc(O)cc(O)c4c3=O)cc2)oc2cc(O)cc(O)c12 [Delicaflavone] here?
A: The IC50 was 105 µM.

Q: What about the “inhibitory effect on CYP1A2” value (CYP1A2; single-point, 10 μM, HLM) of the same compound?
A: Its value is “no obvious inhibitory effect”.

Q: And the IC50 (CYP2C19 [1])?
A: Its IC50 is 72.8 µM.

Q: And the “inhibitory effect on CYP2C19” value (CYP2C19 [1]; [5])?
A: Its value is “no obvious inhibitory effect”.

Q: And the IC50 (CYP2C8)?
A: The IC50 was 13.4 µM.

Q: And the “inhibitory effect on CYP2C8” value (CYP2C8; [5])?
A: Its value is “no obvious inhibitory effect”.

Q: What about the IC50 (CYP2C9) of the same compound?
A: The IC50 was 40 µM.

Q: What about the “inhibitory effect on CYP2C9” value (CYP2C9; [5]) of the same compound?
A: Its value is “no obvious inhibitory effect”.

Q: What about the “inhibitory effect on CYP2D6” value (CYP2D6 [2]; [5]) of the same compound?
A: Its value is “no obvious inhibitory effect”.

Q: What about the IC50 (CYP2E1) of the same compound?
A: Its IC50 is 2860 nM.

Q: And the “inhibitory effect on CYP2E1” value (CYP2E1; [5])?
A: The value was “weak inhibitory effect”.

Q: What about the IC50 at 15 min (CYP3A; [6]) of the same compound?
A: The IC50 at 15 min was 33.3 µM.

Q: And the IC50 at 15 min (CYP3A; [7])?
A: Its IC50 at 15 min is 7.25 µM.

Q: And the “inhibitory effect on CYP3A” value (CYP3A; single-point, 10 μM, cocktail assay, HLM, substrate not specified)?
A: The value was “weak inhibitory effect”.

Q: And the “time-dependent inhibition on CYP2C19” value (CYP2C19 [3])?
A: The value was “did not produce time-dependent inhibition effect”.

Q: What about the “time-dependent inhibition on CYP2D6” value (CYP2D6 [4]) of the same compound?
A: Its value is “did not produce time-dependent inhibition effect”.

Q: And the “time-dependent inhibition on CYP3A (Testosterone)” value (CYP3A (Testosterone))?
A: The value was “did not produce time-dependent inhibition effect”.

Q: O=c1cc(-c2ccc(O)cc2)oc2cc(O)cc(O)c12 [Apigenin] was tested. Which inhibition at 15 min, 10 µM (CYP2C8) did it give?
A: The inhibition at 15 min, 10 µM was > 50%.

Q: And the inhibition at 15 min, 10 µM (CYP2C9)?
A: Its inhibition at 15 min, 10 µM is > 50%.

Q: What about the inhibition at 15 min, 10 µM (CYP2E1; microsomes) of the same compound?
A: Its inhibition at 15 min, 10 µM is > 50%.

Q: And the inhibition at 15 min, 10 µM (CYP3A; [8])?
A: Its inhibition at 15 min, 10 µM is > 50%.

Q: COc1cc2c(cc1OC)-c1cc3ccc(OC)c(OC)c3c[n+]1CC2 [Palmatine] was tested. Which “inhibitory effect on CYP2E1” value (CYP2E1; microsomes, 10 µM) did it give?
A: Its value is “weak inhibitory effect”.

Q: And the inhibition at 15 min, 10 µM (CYP3A; [8])?
A: The inhibition at 15 min, 10 µM was > 50%.

Q: Which results are given for O=c1cc(-c2ccc(O)c(-c3c(O)cc(O)c4c(=O)cc(-c5ccc(O)cc5)oc34)c2)oc2cc(O)cc(O)c12 [Amentoflavone]?
A: IC50 (CYP1A2): 3.7 µM; inhibition at 15 min, 10 µM (CYP1A2; human, liver microsomes, pH 7.4, probe Phenacetin (in cocktail), single-point, 10 μM, HLM, read-out: inhibitory effect on CYP1A2): > 50%; IC50 (CYP2C19 [1]): 1.06 µM; inhibition at 15 min, 10 µM (CYP2C19 [1]; human, microsomes, pH 7.4): > 50%; IC50 (CYP2C8): 0.144 µM; inhibition at 15 min, 10 µM (CYP2C8): > 50%; IC50 (CYP2C9): 0.142 µM; inhibition at 15 min, 10 µM (CYP2C9): > 50%; IC50 (CYP2D6 [2]): 4.6 µM; inhibition at 15 min, 10 µM (CYP2D6 [2]; human, microsomes, pH 7.4): > 50%; IC50 (CYP2E1): 1050 nM; inhibition at 15 min, 10 µM (CYP2E1; microsomes): > 50%; IC50 at 15 min (CYP3A; [6]): 0.827 µM; IC50 at 15 min (CYP3A; [7]): 0.435 µM; inhibition at 15 min, 10 µM (CYP3A; pH 7.4, single-point, 10 μM, cocktail assay, HLM, substrate not specified, read-out: inhibitory effect on CYP3A): > 50%
